Test results from patent US20120283283A1, “METHODS FOR DETECTING ENHANCED RISK OF OPIOID-INDUCED HYPOXIA IN A PATIENT” (priority 2011, published 2012).

Test system: patients with moderate to severe postoperative pain following bunionectomy surgery
Assay: Three double blind, randomized clinical studies (007, 008, 021): oxygen desaturation (SpO2<90%) by pulse oximetry during 48 hour treatment
Conditions: for median number of episodes of SpO2<90%: patients who experienced oxygen desaturation
Method: Oxygen saturation was measured continuously during baseline and the 48 hour treatment periods using pulse oximetry. The total number and percentage of patients with oxygen desaturation (SpO2<90%) were recorded at: 0, 15, 30 and 45 minutes, and 1, 2, 3, 4, 5, 6 and 8 hours after study drug administration; at the time of administration of subsequent doses of study medication; at the time of administration of supplemental analgesic medication; 1 hour after administration of study medication; and whenever a desaturation occurred during the dosing period.
Respiration rate (<10 breaths/min, 10-12 breaths/min, >12 breaths/min) was summarized at the same time points as the SpO2 recordings. Cumulative MED was determined at the time of the first episode of SpO2<90%. All desaturations and use of supplemental oxygenation, use of narcotic antagonists against respiratory impairment, and respiratory related serious adverse events (SAEs) were recorded.
In subjects with oxygen desaturation the following data was recorded: cumulative MED at first desaturation; mean desaturation values; number of desaturation episodes; and total duration of desaturation episodes.
Some patients in the three clinical studies were enrolled who resided near study sites that are located at an altitude of about or over 4000 feet above sea level.

COc1ccc2c3c1O[C@H]1C(=O)CC[C@@]4(O)[C@@H](C2)N(C)CC[C@]314.Cl [oxycodone, oxycodone hydrochloride]
incidence of desaturation (SpO2<90%) (12 mg MED, lower elevation / non-high altitude sites): 1.6%
cumulative dose before experiencing an oxygen desaturation event (SpO2<90%) (cumulative MED at first desaturation): 24 mg
incidence of desaturation at high elevation site compared to lower sites (morphine or oxycodone alone): ten-fold greater
median number of episodes of SpO2<90%: 2.0

CN1CC[C@]23c4c5ccc(O)c4O[C@H]2[C@@H](O)C=C[C@H]3[C@H]1C5.O=S(=O)(O)O [morphine, morphine sulfate]
median number of episodes of SpO2<90%: 2.0
